Results published in patent publication US8519110B2, “mRNA cap analogs” (Board of Supervisors of Louisiana State University And …, priority 2008, dated 2013).
Read-outs that look alike come from different tables or passages of the source.

Columns and labels:
Human DcpS = biological target: T1, Human DcpS (Homo sapiens, UniProt Q96C86); assay: Assay of susceptibility to DcpS (RP HPLC); assay type: biochemical
T1 construct: made in house; host or cells: Escherichia coli
T1 sequence (Q96C86 1-337): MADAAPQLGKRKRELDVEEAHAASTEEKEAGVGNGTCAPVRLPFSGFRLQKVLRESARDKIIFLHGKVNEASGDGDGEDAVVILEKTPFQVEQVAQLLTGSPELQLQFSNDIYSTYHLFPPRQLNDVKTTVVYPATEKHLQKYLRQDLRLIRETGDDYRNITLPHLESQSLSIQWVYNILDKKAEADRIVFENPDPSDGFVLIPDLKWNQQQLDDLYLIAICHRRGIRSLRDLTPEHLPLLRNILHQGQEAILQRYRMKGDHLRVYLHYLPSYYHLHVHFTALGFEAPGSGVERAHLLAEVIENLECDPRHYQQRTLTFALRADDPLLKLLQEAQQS
Summary of the method: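 E. coli-expressed human DcpS reacted with 40 μM cap analog at 30° C in 50 mM Tris-HCl pH 7.9, 20 mM MgCl2, 60 mM (NH4)2SO4. Samples taken at 10, 30, 60 and 120 min, heat-inactivated, and analysed by RP HPLC (methanol gradient in 0.1 M KH2PO4 pH 6.0).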

eIF4E = eIF4E (Mus musculus, UniProt P63073); assay: Binding affinity of cap analogs to eIF4E by fluorescence titration; conditions: equilibrium association constant; for Cap analog/eIF4E affinity (KAS): 20 °C, pH 7.2, ionic strength 150 mM; for Cap analog-eIF4E affinity (KAS): Table 3
eIF4E, sequence (P63073 28-217 limits assumed): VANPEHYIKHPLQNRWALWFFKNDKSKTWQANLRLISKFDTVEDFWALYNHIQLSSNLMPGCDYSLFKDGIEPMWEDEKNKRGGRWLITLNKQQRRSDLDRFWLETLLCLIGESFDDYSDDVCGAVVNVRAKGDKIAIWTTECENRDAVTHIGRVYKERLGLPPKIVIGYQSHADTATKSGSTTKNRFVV
Summary of the method: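 Cap analogue was titrated into 0.1 or 0.2 μM eIF4E at 20.0° C, in 50 mM HEPES/KOH pH 7.2 with 0.5 mM EDTA and 1 mM DTT, ionic strength 150 mM (KCl). Fluorescence quenching was read at excitation 280 or 295 nm and emission 337 nm, corrected for dilution and inner filter. Kas is a weighted average of 3–10 titration fits.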

[1] = biological target: cap-dependent translation of luciferase mRNA in reticulocyte lysate; assay: Inhibition of cap-dependent translation in vitro by free cap analogs; assay type: biochemical, rabbit
Protocol: In vitro translation reactions were performed in 12.5 μl for 60 min at 30° C. under conditions favorable for cap-dependent translation. In some cases, the reaction mixture was incubated for 60 min at 30° C. prior to adding the dinucleotide cap analog (inhibitor) and m2^7,3′-OGppG-capped luciferase mRNA to start translation. In other cases, to analyze biological stability, the cap analog was incubated in the translation mixture for 60 min at 30° C. prior to adding the luciferase mRNA to start translation. A typical reaction mixture contained 56% reticulocyte lysate, the 20 “standard” amino acids (0.01 mM each), MgCl2 (1.2 mM), potassium acetate (170 mM), RiboLock Ribonuclease Inhibitor (0.32 U/μl), cap analog solution ( 1/10 of total reaction volume), and m2^7,3′-OGpppG-capped luciferase RNA. […] Reactions were performed with cap analog concentrations ranging from 0.12 to 100 μM. Luciferase activity was measured in a luminometer. […] The program OriginPro8 (OriginLab) was used for curve fitting with the equation qLUC=Z/(1+I/IC50)+N, where qLUC is the activity of luciferase synthesized in the presence of cap analog, Z is the activity of luciferase synthesized in the absence of cap analog, N is the activity of luciferase synthesized in a cap-independent manner, and I is the cap analog concentration.
Two type of experiments were carried out. In one set of experiments (condition A), a cap analog was added to the translation system together with luciferase mRNA. In the other set of experiments (condition B), the cap analog was incubated in the translation system for 60 min before addition of mRNA. […] There was a correlation between the resistance to hydrolysis by DcpS and the stability of analogs in the translation system.

[2] = 40 μM cap analog, 30° C., up to 120 min
[3] = cap analog added together with luciferase mRNA, read-out: Inhibition of in vitro translation (IC50), condition A
[4] = cap analog incubated in translation system 60 min before addition of mRNA, read-out: Inhibition of in vitro translation (IC50), condition B
[5] = Table 3, cap analog added together with mRNA, read-out: Inhibition of in vitro translation (IC50), condition A
[6] = Table 3, cap analog preincubated 60 min in lysate, read-out: Inhibition of in vitro translation (IC50), condition B

Compound	Susceptibility to DcpS (Human DcpS; [2])	Cap analog/eIF4E affinity (KAS) (eIF4E) [μM^−1]	IC50 [1, 3] [µM]	IC50 [1, 4] [µM]	Susceptibility to DcpS (Human DcpS; Table 3)	Cap analog-eIF4E affinity (KAS) (eIF4E) [μM^−1]	IC50 [1, 5] [µM]	IC50 [1, 6] [µM]
m^7GppBH3pm^7G	resistant	11.1 ± 0.2	3 ± 0.1	3 ± 0.2	–	–	–	–
CO[C@@H]1[C@H](O)[C@@H](COP(=O)(O)OP(O)(=[Se])OP(=O)(O)OC[C@H]2O[C@@H](n3cnc4c(=O)[nH]c(N)nc43)[C@H](O)[C@@H]2O)O[C@H]1n1c[n+](C)c2c(=O)[nH]c(N)nc21 (single isomer, unassigned) [m2^7,2′-OGppSepG (D1), m2^7,2′-OGppSepG]	–	–	–	–	hydrolyzed	38.5 ± 0.7	8.4 ± 1.4	14.7 ± 1.6
CO[C@@H]1[C@H](O)[C@@H](COP(=O)(O)OP(O)(=[Se])OP(=O)(O)OC[C@H]2O[C@@H](n3cnc4c(=O)[nH]c(N)nc43)[C@H](O)[C@@H]2O)O[C@H]1n1c[n+](C)c2c(=O)[nH]c(N)nc21 (single isomer, unassigned) [m2^7,2′-OGppSepG (D2), m2^7,2′-OGppSepG]	–	–	–	–	hydrolyzed	19.0 ± 0.5	3.9 ± 0.5	11.4 ± 7.2
Cn1c[n+]([C@@H]2O[C@H](COP(=O)(O)OP(=O)(O)OP(=O)(O)OC[C@H]3O[C@@H](n4cnc5c(=O)[nH]c(N)nc54)[C@H](O)[C@@H]3O)[C@@H](O)[C@H]2O)c2nc(N)[nH]c(=O)c21 [m^7GpppG, m^7G(5′)ppp(5′)G, reference compound]	hydrolyzed	9.4 ± 0.4	8.3 ± 0.2	35.1 ± 10.8	hydrolyzed	9.4 ± 0.4	8.3 ± 0.2	35.1 ± 10.8
